Source: paper PMC11129349, “Synthesis and Evaluation of a Novel PET Radioligand for Imaging Glutaminyl Cyclase Activity as a Biomarker for Detecting Alzheimer’s Disease” (ACS Sensors, 2024)

Biological target: T1, glutaminyl cyclase (QC; human recombinant glutaminyl peptide cyclotransferase) (Homo sapiens, UniProt Q16769)
T1 construct: gene QPCT
Assay: PGPEP1-coupled fluorescence assay with H-Gln-AMC substrate, recombinant human QC
Format: biochemical

T1 sequence (Q16769 29-361): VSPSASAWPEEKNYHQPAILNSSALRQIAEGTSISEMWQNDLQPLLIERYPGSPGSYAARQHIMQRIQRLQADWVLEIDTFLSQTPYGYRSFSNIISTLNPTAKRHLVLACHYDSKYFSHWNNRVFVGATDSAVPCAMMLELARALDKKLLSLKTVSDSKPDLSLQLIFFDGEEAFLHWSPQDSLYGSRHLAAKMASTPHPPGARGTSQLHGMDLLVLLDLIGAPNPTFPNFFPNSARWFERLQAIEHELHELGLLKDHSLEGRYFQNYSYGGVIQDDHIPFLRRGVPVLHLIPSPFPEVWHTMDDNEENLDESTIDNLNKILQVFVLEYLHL

O=C1NC[C@H](c2ccc(OCCCF)cc2)N1c1ccc2[nH]cnc2c1 [compound 8, S-[19F]PB0822]
IC50: 56.3 nM
